# According to publication PMC7203245, “Lacosamide intake during pregnancy increases the incidence of foetal malformations and symptoms associated with schizophrenia in the offspring of mice” (Scientific Reports, 2020):
# Experiments:
# [1] = tested on: adult male mice; test: Startle response/prepulse inhibition (PPI) test; format: in vivo
# Description: All trials were performed by an experimenter blind to the drug treatment.
# Startle response/prepulse inhibition (PPI) test. Animals were placed individually inside a startle chamber (Cibertec S.A., Madrid, Spain) and the startle response was measured using a piezoelectric accelerometer controlled by a computer. The digitized signal was averaged from 25–30 recordings. For training, the mouse was placed in the startle chamber for an acclimation period of 3 min. Baseline responses were averaged after the presentation of 20 sounds (125 dB, 100 ms long) and from this phase, the average response and peak latencies, and the peak response were determined. During PPI trials, the same 125-dB 100-ms burst was preceded (250 ms) by a prepulse stimulus of 85 dB, lasting for 50 ms. Trials including prepulse stimuli were randomly presented with normal startle stimuli, the final total being 25 of each, and the proportion of PPI was determined as [(1-prepulse/startle)*100]. The ambient background noise was 70 dB.
# [2] = LCM concentration in serum of dams by UHPLC-QTOF-MS; format: in vivo, mice; conditions: female, mouse, intraperitoneal, 24 h post-injection, 2 dams in each dose group (10-120 mg/kg), no relationship with dose
# Description: Maternal weights were assessed at the end of the treatment periods. After 14.5 days of gestation (embryonic day14.5, E14.5), blood was extracted from the orbital sinus of the pregnant dams under anaesthesia (70 mg/kg Thiobarbital: Braun Medical S.A. Spain), as described previously[56] and sacrificed by neck dislocation immediately after. Blood samples were centrifuged immediately, and the serum was collected and stored at -80 °C for further chemical analysis.
# (§1) Samples were extracted as described previously[25] with slight modifications. Briefly, embryos were rinsed with cold saline and ultrapure water, and their wet-weight was determined. They were then homogenized using a 150 T Ultrasonic homogenizer (Fisher Scientific, Spain) and 10 µL of an internal standard solution (IS: aqueous D^3-LCM IS, 5 mg mL^−1) was added to the biological samples (embryos or 50 µL of serum). […] The mixture was vortexed vigorously for 3 min and centrifuged at 13,000 g for 5 min. The supernatant was transferred to a new Eppendorf tube and evaporated to dryness in a stream of nitrogen gas. The residue was reconstituted with 50 µL of LC-MS Ultrapure water, vortexed for 20 s and centrifuged at 13,000 g for 5 min. The supernatant was transferred to a conic micro insert to be injected onto the UHPLC system.
# MS spectra data were collected between m/z 50 and 1000, and MS/MS spectra were registered between 50-300 Da. […]
# [3] = tested on: adult mouse neocortex; test: Nissl staining and immunohistochemistry (calbindin, calretinin, doublecortin) of adult brain; format: in vivo, mice
# Description: (§2) As formerly described by[59], mice from each experimental group were anesthetized with 4% of chloral hydrate (10 µL/g of weight) and trans-cardiacally perfused with cold saline. Brains were removed and fixed by immersion for 24 h at 4 °C in 4% paraformaldehyde prepared in phosphate-buffered saline (PBS). Tissue was cryoprotected in 30% sucrose-PBS for 2 days at 4 °C and coronal brain sections (50 µm) were then processed for Nissl staining and free-floating immunohistochemistry. Sections encompassed roughly between 2.80 mm to -2.80 mm from Bregma[60] were selected for Toluidine blue staining and immunohistochemical processing. Brain slices from all animals were processed simultaneously in each assay. Immunohistochemistry assays were performed with free-floating sections and an avidin-biotinylated peroxidase method. Primary antibodies used were calbindin (CB, 1:500, Santa Cruz, sc-365360), calretinin (CR, 1:1000, Santa Cruz, sc-26512) and doublecortin (DCX, 1:500, Santa Cruz, sc-8066). Secondary biotinylated antibodies were used (1:500). […] Several control sections were processed without the primary antibody, showing no signal. To minimize variability, at least 2 sections from each area were analysed per animal on a bright-field DMRB RFY HC microscope (Leica) using a 10X objective. For DCX quantification images were taken using a 20X objective and later a whole image of dentate gyrus was reconstructed using Photoshop tiling function. In each section, the total number of labelled cells per area of tissue was quantified using Image-J software (downloaded as a free software package from the public domain: http://rsb.info.nih.gov/ij/download.html). 6 different animals were processed for each primary antibody and pharmacologic treatment from 10 litters.
# [4] = as above; format: in vivo, mice
# Description: as §2
# [5] = LCM and related compounds (RC) in embryos and mothers' serum by high-resolution MS/MSe; format: in vivo, mice; conditions: Maternal Dose 10 mg/kg
# Description: as §1, with “determined.” for “determined. They were then homogenized using a 150 T Ultrasonic homogenizer (Fisher Scientific, Spain) and 10 µL of an internal standard solution (IS: aqueous D^3-LCM IS, 5 mg mL^−1) was added to the biological samples (embryos or 50 µL of serum).”
# MS spectra data were collected between m/z 50 and 1000, and MS/MS spectra were registered between 50-300 Da. […] The MS^e procedure was used to identify metabolites in positive ionization mode. UPLC–QTOF-MS^e detection collects data using two scan functions, providing fragment ion information without precursor ion selection. A characteristic m/z in the low energy function allows identification through the fragment ions obtained with the high collision energy function. Two functions were acquired at different collision energies: a low energy function obtained at 2 eV; and a high-energy function obtained using a collision energy ramp ranging from 15 to 30 eV and spectra data collected between m/z 50 and 800. The data station operating the software was a MassLynx version 4.1, while metabolites were identified by means of Metabolynx XS (Waters, Micromass, Manchester, UK).
# In this work the following routes were selected for these searches: phase I metabolites Reduction (+H2), Hydroxylation (O), Hydration (+H2O), 2xHydroxylation (+O2), Deacetylation (-C2H2O) and Demethylation (-CH2); and phase II metabolites Acetylation (+C2H2O) and Glucuronide (+C6H8O6).
structure (smiles),measurement,setting,value
"COC[C@@H](NC(C)=O)C(=O)NCc1ccccc1 [LCM, R-2-acetamido-N-benzyl-3-methoxypropionamide]",PPI of the acoustic startle response,[1]; 40 mg/kg in utero,54.85 ± 4.27%
same,PPI of the acoustic startle response,[1]; 120 mg/kg in utero,23.19 ± 7.9%
same,"acoustic startle reflex parameters (peak latencies, maximum peak response)",[1]; LCM administration during gestation,did not modify any parameters
same,concentration at 24 h,[2],5 to 133 ng/mL
same,number of CR neurons in PrL cortex,[3]; 40 mg/kg in utero,10.83 ± 1.12 cells/100 µm²
same,number of CR neurons in RSA cortex,[3]; 40 mg/kg in utero,16.18 ± 1.23 cells/100 µm²
same,number of calbindin (CB) labelled neurons in the amygdala,[3]; 40 mg/kg in utero,23.28 ± 2.98 cells/100 µm^2
same,number of CR neurons in PrL cortex,[3]; 120 mg/kg in utero,13.03 ± 1.08 cells/100 µm²
same,number of CR neurons in RSA cortex,[3]; 120 mg/kg in utero,16.94 ± 0.7 cells/100 µm²
same,number of calbindin (CB) labelled neurons in the amygdala,[3]; 120 mg/kg in utero,13 ± 1.8 cells/100 µm^2
same,DCX labelling in ventral DG,[4]; 40 mg/kg in utero,13.46 ± 1.03 cells/100 µm²
same,DCX labelling in ventral DG,[4]; 120 mg/kg in utero,9.75 ± 0.85 cells/100 µm²
same,Embryos in which the LCM compound is present,[5],Embryo1 and 2
